Data taken from patent US10378021B2, “Plant CO2 sensors, nucleic acids encoding them, and methods for making and using them” (The Regents of the University of California, priority 2007, dated 2019).

Assays:
[1] = test system: Arabidopsis guard cells; conditions: loaded into Arabidopsis guard cells; cited from earlier work
[2] = test system: wild-type leaf epidermis stomata; assay: CO2-induced stomatal movements in leaf epidermis treated with carbonic anhydrase inhibitor; format: cell-based, Arabidopsis thaliana; conditions: wild-type leaf epidermis treated for 30 min
[3] = test system: wild-type Arabidopsis thaliana plants; assay: Norflurazon bleaching of leaves and CO2-induced stomatal movements in albino leaves; format: in vivo
Description: To further analyze whether intact photosynthesis is required for CO2 regulation of stomatal movements, another approach was carried out.
FIG. 13A illustrates an image of chlorophyll-deficient albino wild-type leaves devoid of functional chloroplasts were generated by application of the carotenoid biosynthesis inhibitor norflurazon. The absence of chlorophyll in albino guard cells compared to wild-type was visualized by confocal microscopy (FIG. 13B graphically illustrates data) and quantified by image analysis of the chlorophyll fluorescence intensity (FIG. 13C graphically illustrates data) (n=3, 12 stomata/sample.). FIG. 13D graphically illustrates data showing CO2-induced stomatal movements in albino versus control plant leaves (n=7, 50 stomata/sample). Error bars depict means±s.e.m.

[4] = test system: ca1ca4 leaf epidermis stomata; assay: abscisic acid-induced stomatal closing in leaf epidermis; format: cell-based, Arabidopsis thaliana
Description: FIG. 10A illustrates stomata in ca1ca4 double mutant leaves close in response to abscisic acid; n=3 experiments, 30 stomata/experiment and condition. Error bars depict means±s.e.m. FIG. 10B illustrates CO2-induced stomatal movements are impaired in ca1ca4 double mutant leaves and in wild-type leaf epidermis treated with the carbonic anhydrase inhibitor 6-ethoxy-2-benzothiazolesulphonamide (EZA) (n=6, 30 stomata/sample); see e.g., Becker et al., 2007.
To determine whether the impaired CO2 responses in intact leaves (see FIG. 9C, FIG. 9D, FIG. 9E) are linked to stomatal movements, CO2 responses were analyzed in leaf epidermis. CO2-induced stomatal movements were impaired in ca1ca4 as compared to wild-type, as illustrated in FIG. 10B. Furthermore, when wild-type leaf epidermis were treated for 30 min with the membrane-permeable CA inhibitor EZA (see, e.g., Becker et al., 2007), CO2-induced stomatal opening and closing were inhibited, which correlates with a role for carbonic anhydrases in CO2 sensing, rather than a long-term developmental effect of CA gene disruption on the rapid CO2 response, as illustrated in FIG. 10B.

O=C(O)CN(CC(=O)O)c1ccccc1OCCOc1ccccc1N(CC(=O)O)CC(=O)O [BAPTA]
spontaneous calcium transients in guard cells [1]: effectively inhibits

CCOc1ccc2nc(S(N)(=O)=O)sc2c1 [EZA, 6-ethoxy-2-benzothiazolesulphonamide]
CO2-induced stomatal opening and closing [2]: inhibited

CNc1cnn(-c2cccc(C(F)(F)F)c2)c(=O)c1Cl [Norflurazon]
stomatal CO2 response to both high and low [CO2] in intact leaves ([3]; albino leaves without functional chloroplasts): not affected | leaf phenotype of newly emerging leaves ([3]; watering 3 to 4 week-old wild-type plants): albino chlorophyll-deficient wild-type leaves devoid of functional chloroplasts

CC1=CC(=O)CC(C)(C)[C@@]1(O)/C=C/C(C)=C\C(=O)O [abscisic acid]
ABA-induced stomatal closing [4]: completely functional
